Results published in patent US8796253B2, “Heteroaryl substituted pyrazole derivatives useful for treating hyper-proliferative disorders and diseases associated with angiogenesis” (Bayer Intellectual Property GmbH, priority 2007, dated 2014).

The compounds below were run on HCT-116 cells stably transfected with a Luciferase reporter gene under the control of HIF-responsive element (assay: HIF-Luciferase Assay). Settings: Homo sapiens, HCT-116, HIF-Luciferase Assay, HCT-116 reporter cells, overnight at 1% oxygen; group >10, unit inferred.
Type: cell-based
Experimental: HCT-116 cells stably transfected with a Luciferase reporter gene under the control of HIF-responsive element were plated in white 96- or 384-well plates at 30,000 or 5,000 cells/well, respectively, in 50 μL/well media (RPMI with 10% fetal bovine serum and 100 μg/mL Hygromycin). Cells were incubated overnight at 37° C. in a humidified incubator containing 5% CO2 under normal oxygen. The next day test compounds were added to the wells at various concentrations (0-10 μM, 0.1% final DMSO concentration) and placed in a hypoxic chamber overnight at 1% oxygen. Following the exposure to hypoxic conditions, 50 μL/well of Bright Glo reagent (Promega, Wisconsin, USA) was added to the wells and luminescence was measured after 5 min. Cells incubated under normal oxygen levels were used as background control. […] Compounds that have IC50 values between 1 μM and 10 μM include those of Examples 8, 16, 38, 39, 40, 41, 42, 43, 47, 48, 53, 54, 56, 57, 66, 69, and 72.

IC50 [nM]	SMILES
> 10000	Cc1ccc(Cn2nc(-c3nc(-c4ccc(F)c(Br)c4)no3)cc2C)cc1 [Example 15, 3-(3-bromo-4-fluorophenyl)-5-[5-methyl-1-(4-methylbenzyl)-1H-pyrazol-3-yl]-1,2,4-oxadiazole]
> 10000	Cc1ccc(Cn2nc(-c3nc4cc(C(C)(C)c5ccccc5)ccc4o3)cc2C)cc1 [Example 32, 2-[5-methyl-1-(4-methylbenzyl)-1H-pyrazol-3-yl]-5-(1-methyl-1-phenylethyl)-1,3-benzoxazole]
> 10000	Cc1ccc(Cn2nc(-c3nc4cc(Cc5ccccc5)ccc4o3)cc2C)cc1 [Example 33, 5-benzyl-2-[5-methyl-1-(4-methylbenzyl)-1H-pyrazol-3-yl]-1,3-benzoxazole]

Same assay, conditions: Homo sapiens, HCT-116, HIF-Luciferase Assay, HCT-116 reporter cells, overnight at 1% oxygen; individual values

IC50 [nM]	SMILES
30	Cc1ccc(Cn2nc(-c3nc(-c4ccc(OC(F)(F)F)cc4)no3)cc2C)cc1 [Example 1]
5	Cc1ccc(Cn2nc(-c3nc(-c4ccc(C(C)(C)C)cc4)no3)cc2C)cc1 [Example 4, 3-(4-tert-butylphenyl)-5-[5-methyl-1-(4-methylbenzyl)-1H-pyrazol-3-yl]-1,2,4-oxadiazole]
30	Cc1ccc(Cn2nc(-c3nc(-c4ccc(OCC(F)(F)F)cc4)no3)cc2C)cc1 [Example 18, 5-[5-Methyl-1-(4-methylbenzyl)-1H-pyrazol-3-yl]-3-[4-(2,2,2-trifluoroethoxy)phenyl]-1,2,4-oxadiazole]
80	Cc1ccc(Cn2nc(-c3nc(-c4ccc(N5CCCC5=O)cc4)no3)cc2C)cc1 [Example 24, 1-(4-{5-[5-Methyl-1-(4-methylbenzyl)-1H-pyrazol-3-yl]-1,2,4-oxadiazol-3-yl}phenyl)pyrrolidin-2-one]

Same assay, conditions: Homo sapiens, HCT-116, HIF-Luciferase Assay, HCT-116 reporter cells, overnight at 1% oxygen; potency groups

SMILES	IC50 [nM]
Cc1ccc(Cn2nc(-c3nc(-c4ccc(OC(F)(F)F)cc4)no3)cc2C)cc1 [Example 1]	≤ 1000
Cc1ccc(Cn2nc(-c3nc(-c4ccc(OCc5ccc(Cl)cc5)cc4)no3)cc2C)cc1 [Example 2, 3-{4-[(4-chlorobenzyl)oxy]phenyl}-5-[5-methyl-1-(4-methylbenzyl)-1H-pyrazol-3-yl]-1,2,4-oxadiazole]	≤ 1000
Cc1ccc(Cn2nc(-c3nc(-c4ccc(Br)cc4)no3)cc2C)cc1 [Example 3, 3-(4-bromophenyl)-5-[5-methyl-1-(4-methylbenzyl)-1H-pyrazol-3-yl]-1,2,4-oxadiazole]	≤ 1000
Cc1ccc(Cn2nc(-c3nc(-c4ccc(C(C)(C)C)cc4)no3)cc2C)cc1 [Example 4, 3-(4-tert-butylphenyl)-5-[5-methyl-1-(4-methylbenzyl)-1H-pyrazol-3-yl]-1,2,4-oxadiazole]	≤ 1000
Cc1ccc(Cn2nc(-c3nc(-c4ccc(-c5ccc(OC(F)(F)F)cc5)cc4)no3)cc2C)cc1 [Example 5, 5-[5-methyl-1-(4-methylbenzyl)-1H-pyrazol-3-yl]-3-[4′-(trifluoromethoxy)biphenyl-4-yl]-1,2,4-oxadiazole]	≤ 1000
Cc1ccc(Cn2nc(-c3nc(-c4ccc(N5CCCC(C)C5)cc4)no3)cc2C)cc1 (stereo not drawn) [Example 6, 3-methyl-1-(4-{5-[5-methyl-1-(4-methylbenzyl)-1H-pyrazol-3-yl]-1,2,4-oxadiazol-3-yl}phenyl)piperidine]	≤ 1000
Cc1ccc(Cn2nc(-c3nc(-c4ccc(C(F)(F)F)cc4)no3)cc2C)cc1 [Example 7, 5-[5-methyl-1-(4-methylbenzyl)-1H-pyrazol-3-yl]-3-[4-(trifluoromethyl)phenyl]-1,2,4-oxadiazole]	≤ 1000
Cc1ccc(C(C)n2nc(-c3nc(-c4ccc(Br)cc4)no3)cc2C)cc1 (stereo not drawn) [Example 8, 3-(4-bromophenyl)-5-{5-methyl-1-[1-(4-methylphenyl)ethyl]-1H-pyrazol-3-yl}-1,2,4-oxadiazole]	1000 to 10000
Cc1ccc(Cn2nc(-c3nc(-c4ccccc4)no3)cc2C)cc1 [Example 9, 5-[5-methyl-1-(4-methylbenzyl)-1H-pyrazol-3-yl]-3-phenyl-1,2,4-oxadiazole]	≤ 1000
Cc1ccc(Cn2nc(-c3nc(-c4ccc(F)cc4)no3)cc2C)cc1 [Example 10, 3-(4-fluorophenyl)-5-[5-methyl-1-(4-methylbenzyl)-1H-pyrazol-3-yl]-1,2,4-oxadiazole]	≤ 1000
Cc1ccc(Cn2nc(-c3nc(-c4ccc(C5CCCCC5)cc4)no3)cc2C)cc1 [Example 11, 3-(4-cyclohexylphenyl)-5-[5-methyl-1-(4-methylbenzyl)-1H-pyrazol-3-yl]-1,2,4-oxadiazole]	≤ 1000
Cc1ccc(Cn2nc(-c3nc(-c4ccc(N5CCCCC5)cc4)no3)cc2C)cc1 [Example 12, 1-(4-{5-[5-methyl-1-(4-methylbenzyl)-1H-pyrazol-3-yl]-1,2,4-oxadiazol-3-yl}phenyl)piperidine]	≤ 1000
Cc1ccc(Cn2nc(-c3nc(-c4ccncc4)no3)cc2C)cc1 [Example 14, 4-{5-[5-Methyl-1-(4-methylbenzyl)-1H-pyrazol-3-yl]-1,2,4-oxadiazol-3-yl}pyridine]	≤ 1000
Cc1ccc(Cn2nc(-c3nc(-c4cccnc4)no3)cc2C)cc1 [Example 16, 3-{5-[5-methyl-1-(4-methylbenzyl)-1H-pyrazol-3-yl]-1,2,4-oxadiazol-3-yl}pyridine]	1000 to 10000
Cc1ccc(Cn2nc(-c3nc(-c4ccc(C(F)(F)F)nc4)no3)cc2C)cc1 [Example 17, 5-{5-[5-methyl-1-(4-methylbenzyl)-1H-pyrazol-3-yl]-1,2,4-oxadiazol-3-yl}-2-(trifluoromethyl)pyridine]	≤ 1000
Cc1ccc(Cn2nc(-c3nc(-c4ccc(OCC(F)(F)F)cc4)no3)cc2C)cc1 [Example 18, 5-[5-Methyl-1-(4-methylbenzyl)-1H-pyrazol-3-yl]-3-[4-(2,2,2-trifluoroethoxy)phenyl]-1,2,4-oxadiazole]	≤ 1000
Cc1ccc(Cn2nc(-c3nc(-c4ccc(OC(C)C)cc4)no3)cc2C)cc1 [Example 20, 3-(4-Isopropoxyphenyl)-5-[5-methyl-1-(4-methylbenzyl)-1H-pyrazol-3-yl]-1,2,4-oxadiazole]	≤ 1000
Cc1ccc(Cn2nc(-c3nc(-c4ccc(N5CCOCC5)cc4)no3)cc2C)cc1 [Example 21, 4-(4-{5-[5-Methyl-1-(4-methylbenzyl)-1H-pyrazol-3-yl]-1,2,4-oxadiazol-3-yl}phenyl)morpholine]	≤ 1000
Cc1ccc(Cn2nc(-c3nc(-c4ccc(N5CCCC5=O)cc4)no3)cc2C)cc1 [Example 24, 1-(4-{5-[5-Methyl-1-(4-methylbenzyl)-1H-pyrazol-3-yl]-1,2,4-oxadiazol-3-yl}phenyl)pyrrolidin-2-one]	≤ 1000
Cc1ccc(Cn2nc(-c3nc(-c4ccc(N5CCOC5=O)cc4)no3)cc2C)cc1 [Example 25, 3-(4-{5-[5-methyl-1-(4-methylbenzyl)-1H-pyrazol-3-yl]-1,2,4-oxadiazol-3-yl}phenyl)-1,3-oxazolidin-2-one]	≤ 1000
Cc1ccc(Cn2nc(-c3nc(-c4ccc(N5CCOCC5=O)cc4)no3)cc2C)cc1 [Example 26, 4-(4-{5-[5-methyl-1-(4-methylbenzyl)-1H-pyrazol-3-yl]-1,2,4-oxadiazol-3-yl}phenyl)morpholin-3-one]	≤ 1000
COCC(=O)Nc1ccc(-c2noc(-c3cc(C)n(Cc4ccc(C)cc4)n3)n2)cc1 [Example 27, 2-methoxy-N-(4-{5-[5-methyl-1-(4-methylbenzyl)-1H-pyrazol-3-yl]-1,2,4-oxadiazol-3-yl}phenyl)acetamide]	≤ 1000
Cc1ccc(Cn2nc(-c3nc4cc(-c5ccccc5)ccc4o3)cc2C)cc1 [Example 29, 2-[5-Methyl-1-(4-methylbenzyl)-1H-pyrazol-3-yl]-5-phenyl-1,3-benzoxazole]	≤ 1000
Cc1ccc(Cn2nc(-c3nc4ccc(Oc5ccccc5)cc4o3)cc2C)cc1 [Example 30, 2-[5-methyl-1-(4-methylbenzyl)-1H-pyrazol-3-yl]-6-phenoxy-1,3-benzoxazole]	≤ 1000
Cc1ccc(Cn2nc(-c3nc4ccccc4o3)cc2C)cc1 [Example 31, 2-[5-methyl-1-(4-methylbenzyl)-1H-pyrazol-3-yl]-1,3-benzoxazole]	≤ 1000

The remaining lines, values ahead:

IC50 [nM]	SMILES
≤ 1000	Cc1ccc(Cn2nc(-c3nc4cc(-c5cccc(F)c5)ccc4o3)cc2C)cc1 [Example 34, 5-(3-fluorophenyl)-2-[5-methyl-1-(4-methylbenzyl)-1H-pyrazol-3-yl]-1,3-benzoxazole]
≤ 1000	Cc1ccc(Cn2nc(-c3nc4cc(-c5ccccc5F)ccc4o3)cc2C)cc1 [Example 35, 5-(2-fluorophenyl)-2-[5-methyl-1-(4-methylbenzyl)-1H-pyrazol-3-yl]-1,3-benzoxazole]
≤ 1000	Cc1ccc(Cn2nc(-c3nc4cc(-c5cccc(Cl)c5)ccc4o3)cc2C)cc1 [Example 36, 5-(3-chlorophenyl)-2-[5-methyl-1-(4-methylbenzyl)-1H-pyrazol-3-yl]-1,3-benzoxazole]
≤ 1000	Cc1ccc(Cn2nc(-c3nc4ccc(Br)cc4[nH]3)cc2C)cc1 [Example 37, 6-Bromo-2-[5-methyl-1-(4-methylbenzyl)-1H-pyrazol-3-yl]-1H-benzimidazole]
1000 to 10000	Cc1ccc(Cn2nc(-c3nc4ccccc4[nH]3)cc2C)cc1 [Example 38, 2-[5-methyl-1-(4-methylbenzyl)-1H-pyrazol-3-yl]-1H-benzimidazole]
1000 to 10000	Cc1ccc(Cn2nc(-c3nc4ccc(C)cc4[nH]3)cc2C)cc1 [Example 39, 6-methyl-2-[5-methyl-1-(4-methylbenzyl)-1H-pyrazol-3-yl]-1H-benzimidazole]
1000 to 10000	Cc1ccc(Cn2nc(-c3nc4c(C)cccc4[nH]3)cc2C)cc1 [Example 40, 4-methyl-2-[5-methyl-1-(4-methylbenzyl)-1H-pyrazol-3-yl]-1H-benzimidazole]
1000 to 10000	Cc1ccc(Cn2nc(-c3nc4ccc(Cl)cc4[nH]3)cc2C)cc1 [Example 41, 6-chloro-2-[5-methyl-1-(4-methylbenzyl)-1H-pyrazol-3-yl]-1H-benzimidazole]
1000 to 10000	Cc1ccc(Cn2nc(-c3nc4ccncc4[nH]3)cc2C)cc1 [Example 42, 2-[5-methyl-1-(4-methylbenzyl)-1H-pyrazol-3-yl]-3H-imidazo[4,5-c]pyridine]
1000 to 10000	Cc1ccc(Cn2nc(-c3nc4ccc(C(C)(C)C)cc4[nH]3)cc2C)cc1 [Example 43, 6-tert-butyl-2-[5-methyl-1-(4-methylbenzyl)-1H-pyrazol-3-yl]-1H-benzimidazole]
